Measurements: patent publication US20100216847A1, “N[…] THE TREATMENT OF PAIN” (UNIVERSITY OF KENTUCKY RESEARCH FOUNDATION, priority 2006, published 2010)

What was measured:
[1] = tested on: rodent model of nociceptive pain (paw withdrawal test); assay: Thermal paw withdrawal test after intraperitoneal administration; type: in vivo, rat; settings: male rats, 2.5, 5 and 10 mg/kg IP, free base, n=8; P<0.05 1-way ANOVA
Procedure: To further characterize the analgesic properties of S(−)nornicotine, a dose-response relationship was determined. Responsiveness to acute thermal noxious stimuli was assessed by a thermal paw withdrawal test [Hargreaves K. et al., “A new sensitive method for measuring thermal nociception in cutaneous hyperalgesia” Pain (1988) 32:77-88]. This test, which uses a ramp heat stimulus on the plantar surface of the paw, appears to generate more consistent analgesic responses to nicotinic drugs as compared to tail flick test. Plantar Stimulator Analgesia Meter (11TC, Life Science, Woodland Hills, Calif.) was used. Briefly, the rat was placed in a clear plastic chamber and allowed to acclimate for 5 min. After the acclimation period, the radiant heat was positioned under the glass floor directly beneath the plantar hind paw. The heat source activated a timer that was controlled by a photocell. The hind paw withdrawal interrupted the photocell and automatically stopped the timer. Latency to paw withdrawal (PWL) was measured to the nearest 0.1 s. […]
S(−)-Nornicotine was administered in three doses (2.5, 5 and 10 mg/kg in form of free base) via the IP route in 8 male rats. […] Responses (PWL, s) were measured prior to and at 5, 10, 15, 30, and 60 min after IP injection. For each rat and at each time point, response was normalized for baseline measured on the day of experiment. […]

[2] = tested on: rodent model of nociceptive pain (tail-flick test); assay: Tail-flick test after intrathecal administration; type: in vivo, rat; settings: male rats, 10 mcg IT single dose, perchlorate salt, n=5, P<0.05 post-hoc SNK
Procedure: A study was performed to screen the analgesic activities of S(−) and R(+) enantiomers of nornicotine following administration by intrathecal route (IT) in a rodent model of nociceptive pain (tail-flick test).
In order to inject these drugs via the IT route chronic catheterization of the spinal subarachnoid space was performed in rats [Yaksh T., Rudy T. “Chronic catheterization of the spinal subarachnoid space” Physiol Behav (1976) 17:1031-1036 (with minor modification)]. Briefly, a 21 cm long P-10 polyethylene tubing (volume 10 mcl) which extended 8.5 cm beyond an incision in the atlanto-occipital membrane was secured to the scull with acrylic cement. The catheter rested in the vicinity of T-12 at the rostral face of the lumbar cord enlargement. The studies were initiated 1 week after implantation of the IT catheter.
A single dose [10 mcg in perch salt form (perchlorate)] of each enantiomer was administered (IT) in 5 male rats. Saline (vehicle; 10 mcl) was used as control. The responses to acute thermal stimuli were determined using the tail-flick test (baseline 2-3 seconds, cut-off 10 seconds). TFL were measured prior to (twice, 15 min apart) and at 5, 10, 15, 30, 45 and 60 min after IT administration. Data were presented as time courses of TFL (normalized for pre-injection baseline, s) [FIG. 2A] and areas under the curves (AUC0-60min) [FIG. 2B].

[3] = tested on: rodent model of nociceptive pain (tail-flick test); assay: Tail-flick test after intraperitoneal administration; type: in vivo, rat; settings: male Sprague-Dawley rats, 5 mg/kg IP single dose, perchlorate salt, vs saline, n=6; preliminary data
Procedure: A study was performed to screen the analgesic activities of S(−) and R(+) enantiomers of nornicotine following administration by intraperitoneal route (IP) in a rodent model of nociceptive pain. The responses to acute thermal stimuli were determined using the tail-flick test [D′Amour F. E., Smith D. L. “A method for determining loss of pain sensation” J Pharmacol Exp Ther (1941), 72:74-79]. Tail-flick latency (TFL) was measured by recording the time from the onset of the heat stimulus to the tail to withdrawal of the tail from the heat source, using a standard tail-flick apparatus (EMDIE, Instrument Co., Roanoke, Va.). The sensitivity of the instrument was adjusted to provide an average baseline 2-3 seconds. Cut-off time of 10 s was used to avoid tail damage.
A single dose [5 mg/kg in perch salt form (perchlorate)] of each nornicotine enantiomer was administered (IP) in 6 male rats [Sprague-Dawley; about 90 days old, 350 g, (Harlan, Indianapolis, Ind.)]. Saline (vehicle, 1 ml/kg) served as control. TFL were determined prior to (twice, 15 min apart) and at 5, 15, 30, 45 and 60 min after i.p. administration. Data were presented as time courses of TFL (normalized for pre-injection baseline, s) [FIG. 1A] and areas under the curves (AUC0-60min) [FIG. 1B].

[4] = tested on: rodent model of chronic inflammatory pain (formalin test); assay: Formalin test (intra-plantar formalin) after intraperitoneal administration; type: in vivo, rat; settings: male rats, 5 mg/kg IP fumarate salt, 15 min prior to formalin, n=6; for formalin-induced flinching, late (tonic) phase 20-60 min: significantly different from saline P<0.05
Procedure: A study was performed to screen the analgesic activities of S(−) and R(+) enantiomers of nornicotine following administration by intraperitoneal route (IP) in a rodent model of chronic inflammatory pain (formalin test). Intra-plantar injection of formalin produces a biphasic behavioral response consisting of flinching, lifting and licking behaviors in rodents. The first phase (acute, 0-20 min) results from direct stimulation of nociceptors (nociceptive pain) whereas the second phase (tonic, 20-60 min) involves central sensitization (a characteristic of neuropathic pain). Accordingly, the formalin test was used to determine the analgesic effects of S(−)- and R(+)-nornicotine [Wheeler-Aceto H., Covan A. “Standardization of the rat formalin test for the evaluation of analgesics” Psychopharmacology (1991) 104:35-44]. Formalin (50 mcl) was injected subcutaneously (SC) into the dorsal surface of the hind paw. The rat was placed in a Plexiglas cage and the intensity of pain (number of formalin-induced flinches) was rated in 5 min intervals for 60 min.
A single dose [5 mg/kg in salt form (fumarate)] of each nornicotine enantiomer and saline (control) was administered (IP) 15 min prior to formalin (SC) injection in 6 male rats. Data were presented as time courses of formalin-induced flinches (number) for S(−)-nornicotine, R(+)-nornicotine and saline [FIG. 4A] and areas under the curves (AUC) calculated for phase 1 (acute, 0-20 min) [FIG. 4B] and phase 2 (tonic, 20-60 min) [FIG. 4C].

[5] = humans; cited from earlier work
[6] = in vivo; cited from earlier work
[7] = following peripheral administration of nicotine; cited from earlier work
[8] = following repeated nicotine dosing; cited from earlier work

Compound	analgesic effect (paw withdrawal latency, AUC0-60min vs log dose) [1]	analgesic effect (tail-flick latency, AUC0-60min) vs the other enantiomer [2]	analgesic effect (tail-flick latency, AUC0-60min) vs saline ([2]; preliminary data)	analgesic effect (tail-flick latency, AUC0-60min) [3]	potency and toxicity profile compared to R(+)-nornicotine (Dose escalation studies)	formalin-induced flinching, early (acute) phase 0-20 min [4]	formalin-induced flinching, late (tonic) phase 20-60 min [4]	plasma half-life [5] [h]	oral bioavailability [6] [%]	residence in the rat's brain [7] [min]	accumulation in brain compared to nicotine [8]	oral bioavailability (in words) [6]
c1cncc([C@@H]2CCCN2)c1 [S(−)-nornicotine]	significantly related to dose	significantly greater as compared to R(+)-nornicotine	significantly greater as compared to saline	significantly greater as compared to saline	more favorable potency and toxicity profile	Neither enantiomer had significant effect	attenuated formalin-induced flinching					
c1cncc([C@H]2CCCN2)c1 [R(+)-nornicotine]				less pronounced		Neither enantiomer had significant effect	attenuated formalin-induced flinching					
CN1CCCC1c1cccnc1 (centres unmarked) [nicotine, reference compound]								1	10	52		
Nornicotine								8		166	about 4 fold	good oral bioavailability
